Numbers after ± are expanded uncertainties.
Assays:
[1] = 101.33 kPa, Liquid, Vibrating tube method
[2] = activity coefficient (dimensionless); of the first substance listed, at infinite dilution; xn = mol fraction of the nth substance listed; conditions: 101 kPa, Liquid, Chromatography, x1 = 0

SMILES | activity coefficient ([2]; 323.15 K) | activity coefficient ([2]; 353.15 K) | activity coefficient ([2]; 373.15 K) | activity coefficient ([2]; 333.15 K) | activity coefficient ([2]; 343.15 K) | other results
CC1(C)[C@@H]2CC[C@@]1(CS(=O)(=O)[O-])C(=O)C2.CCCCCCCCCCCCCC[N+](CCCCCC)(CCCCCC)CCCCCC | – | – | – | – | – | mass density ([1]; 298.55 K): 963.8 ± 0.3 kg/m3; mass density ([1]; 313.45 K): 953.4 ± 0.3 kg/m3; mass density ([1]; 323.45 K): 946.1 ± 0.3 kg/m3; mass density ([1]; 333.25 K): 939.1 ± 0.3 kg/m3
CCCCCCCCCCCCCC[N+](CCCCCC)(CCCCCC)CCCCCC.C[C@H](O)C(=O)[O-] [N,N,N-trihexyl-1-tetradecanaminium (2S)-2-hydroxypropanoate] | – | – | – | – | – | mass density ([1]; 298.55 K): 894.8 ± 0.3 kg/m3; mass density ([1]; 313.45 K): 885.7 ± 0.3 kg/m3; mass density ([1]; 323.45 K): 879.9 ± 0.3 kg/m3; mass density ([1]; 333.25 K): 874.5 ± 0.3 kg/m3
CO [methanol] + CCCCCCCCCCCCCC[N+](CCCCCC)(CCCCCC)CCCCCC.C[C@H](O)C(=O)[O-] | 0.03 | 0.03 | 0.03 | – | – | –
CC1CCCCC1 [methylcyclohexane] + CC1(C)[C@@H]2CC[C@@]1(CS(=O)(=O)[O-])C(=O)C2.CCCCCCCCCCCCCC[N+](CCCCCC)(CCCCCC)CCCCCC | 0.75 ± 0.05 | – | – | 1 | 1.33 ± 0.09 | –
CC1CCCCC1 [methylcyclohexane] + CCCCCCCCCCCCCC[N+](CCCCCC)(CCCCCC)CCCCCC.C[C@H](O)C(=O)[O-] | 0.86 ± 0.06 | 0.82 ± 0.05 | 0.81 ± 0.05 | – | – | –
CC1CCCC1 [methylcyclopentane] + CC1(C)[C@@H]2CC[C@@]1(CS(=O)(=O)[O-])C(=O)C2.CCCCCCCCCCCCCC[N+](CCCCCC)(CCCCCC)CCCCCC | 0.75 ± 0.05 | – | – | 1 | 1.33 ± 0.09 | –
CC1CCCC1 [methylcyclopentane] + CCCCCCCCCCCCCC[N+](CCCCCC)(CCCCCC)CCCCCC.C[C@H](O)C(=O)[O-] | 0.82 ± 0.05 | 0.78 ± 0.05 | 0.77 ± 0.05 | – | – | –
C[N+](=O)[O-] [nitromethane] + CC1(C)[C@@H]2CC[C@@]1(CS(=O)(=O)[O-])C(=O)C2.CCCCCCCCCCCCCC[N+](CCCCCC)(CCCCCC)CCCCCC | 0.34 ± 0.03 | – | – | 0.5 ± 0.1 | 0.7 ± 0.1 | –
C[N+](=O)[O-] [nitromethane] + CCCCCCCCCCCCCC[N+](CCCCCC)(CCCCCC)CCCCCC.C[C@H](O)C(=O)[O-] | 0.32 ± 0.03 | 0.31 ± 0.03 | 0.31 ± 0.03 | – | – | –
CCCCCCCCC [nonane] + CC1(C)[C@@H]2CC[C@@]1(CS(=O)(=O)[O-])C(=O)C2.CCCCCCCCCCCCCC[N+](CCCCCC)(CCCCCC)CCCCCC | 1.5 ± 0.1 | – | – | 2.26 ± 0.15 | 3.24 ± 0.22 | –
CCCCCCCCC [nonane] + CCCCCCCCCCCCCC[N+](CCCCCC)(CCCCCC)CCCCCC.C[C@H](O)C(=O)[O-] | 1.67 ± 0.11 | 1.59 ± 0.11 | 1.51 ± 0.1 | – | – | –
CCCCCCCC [octane] + CC1(C)[C@@H]2CC[C@@]1(CS(=O)(=O)[O-])C(=O)C2.CCCCCCCCCCCCCC[N+](CCCCCC)(CCCCCC)CCCCCC | 1.24 ± 0.08 | – | – | 1.81 ± 0.12 | 2.53 ± 0.17 | –
CCCCCCCC [octane] + CCCCCCCCCCCCCC[N+](CCCCCC)(CCCCCC)CCCCCC.C[C@H](O)C(=O)[O-] | 1.37 ± 0.09 | 1.31 ± 0.09 | 1.29 ± 0.08 | – | – | –
CCCC(C)=O [pentan-2-one] + CC1(C)[C@@H]2CC[C@@]1(CS(=O)(=O)[O-])C(=O)C2.CCCCCCCCCCCCCC[N+](CCCCCC)(CCCCCC)CCCCCC | 0.52 ± 0.04 | – | – | 0.78 ± 0.05 | 1.07 ± 0.07 | –
CCCC(C)=O [pentan-2-one] + CCCCCCCCCCCCCC[N+](CCCCCC)(CCCCCC)CCCCCC.C[C@H](O)C(=O)[O-] | 0.6 ± 0.1 | 0.59 ± 0.04 | 0.59 ± 0.04 | – | – | –
CCC(=O)CC [pentan-3-one] + CC1(C)[C@@H]2CC[C@@]1(CS(=O)(=O)[O-])C(=O)C2.CCCCCCCCCCCCCC[N+](CCCCCC)(CCCCCC)CCCCCC | 0.47 ± 0.04 | – | – | 0.71 ± 0.05 | 1.03 ± 0.06 | –

SMILES | activity coefficient ([2]; 323.15 K) | activity coefficient ([2]; 353.15 K) | activity coefficient ([2]; 373.15 K) | activity coefficient ([2]; 333.15 K) | activity coefficient ([2]; 343.15 K) | other results
CCC(=O)CC [pentan-3-one] + CCCCCCCCCCCCCC[N+](CCCCCC)(CCCCCC)CCCCCC.C[C@H](O)C(=O)[O-] | 0.55 ± 0.04 | 0.55 ± 0.04 | 0.57 ± 0.04 | – | – | –
CCCO [propan-1-ol] + CC1(C)[C@@H]2CC[C@@]1(CS(=O)(=O)[O-])C(=O)C2.CCCCCCCCCCCCCC[N+](CCCCCC)(CCCCCC)CCCCCC | 0.09 ± 0.03 | – | – | 0.16 ± 0.03 | 0.26 ± 0.03 | –
CC(C)O [propan-2-ol] + CC1(C)[C@@H]2CC[C@@]1(CS(=O)(=O)[O-])C(=O)C2.CCCCCCCCCCCCCC[N+](CCCCCC)(CCCCCC)CCCCCC | 0.12 ± 0.03 | – | – | 0.2 | 0.32 ± 0.03 | –
c1ccncc1 [pyridine] + CC1(C)[C@@H]2CC[C@@]1(CS(=O)(=O)[O-])C(=O)C2.CCCCCCCCCCCCCC[N+](CCCCCC)(CCCCCC)CCCCCC | 0.32 ± 0.03 | – | – | 0.49 ± 0.04 | 0.68 ± 0.05 | –
c1ccncc1 [pyridine] + CCCCCCCCCCCCCC[N+](CCCCCC)(CCCCCC)CCCCCC.C[C@H](O)C(=O)[O-] | 0.34 ± 0.03 | 0.34 ± 0.03 | 0.34 ± 0.03 | – | – | –
ClC(Cl)(Cl)Cl [tetrachloromethane] + CC1(C)[C@@H]2CC[C@@]1(CS(=O)(=O)[O-])C(=O)C2.CCCCCCCCCCCCCC[N+](CCCCCC)(CCCCCC)CCCCCC | 0.35 ± 0.03 | – | – | 0.51 ± 0.04 | 0.75 ± 0.05 | –
ClC(Cl)(Cl)Cl [tetrachloromethane] + CCCCCCCCCCCCCC[N+](CCCCCC)(CCCCCC)CCCCCC.C[C@H](O)C(=O)[O-] | 0.24 ± 0.03 | 0.26 ± 0.03 | 0.29 ± 0.03 | – | – | –
c1ccsc1 [thiophene] + CC1(C)[C@@H]2CC[C@@]1(CS(=O)(=O)[O-])C(=O)C2.CCCCCCCCCCCCCC[N+](CCCCCC)(CCCCCC)CCCCCC | 0.28 ± 0.03 | – | – | 0.42 ± 0.04 | 0.56 ± 0.04 | –
c1ccsc1 [thiophene] + CCCCCCCCCCCCCC[N+](CCCCCC)(CCCCCC)CCCCCC.C[C@H](O)C(=O)[O-] | 0.28 ± 0.03 | 0.29 ± 0.03 | 0.3 ± 0.1 | – | – | –
Cc1ccccc1 [toluene] + CC1(C)[C@@H]2CC[C@@]1(CS(=O)(=O)[O-])C(=O)C2.CCCCCCCCCCCCCC[N+](CCCCCC)(CCCCCC)CCCCCC | 0.41 ± 0.03 | – | – | 0.63 ± 0.04 | 0.88 ± 0.06 | –
Cc1ccccc1 [toluene] + CCCCCCCCCCCCCC[N+](CCCCCC)(CCCCCC)CCCCCC.C[C@H](O)C(=O)[O-] | 0.46 ± 0.04 | 0.46 ± 0.04 | 0.48 ± 0.04 | – | – | –
ClC(Cl)Cl [trichloromethane] + CC1(C)[C@@H]2CC[C@@]1(CS(=O)(=O)[O-])C(=O)C2.CCCCCCCCCCCCCC[N+](CCCCCC)(CCCCCC)CCCCCC | 0.05 | – | – | 0.09 ± 0.03 | 0.15 ± 0.03 | –
ClC(Cl)Cl [trichloromethane] + CCCCCCCCCCCCCC[N+](CCCCCC)(CCCCCC)CCCCCC.C[C@H](O)C(=O)[O-] | 0.05 | 0.04 | 0.03 | – | – | –
CCN(CC)CC [triethylamine] + CC1(C)[C@@H]2CC[C@@]1(CS(=O)(=O)[O-])C(=O)C2.CCCCCCCCCCCCCC[N+](CCCCCC)(CCCCCC)CCCCCC | 0.84 ± 0.05 | – | – | 1.23 ± 0.08 | 1.55 ± 0.1 | –
CCCCCCCCCCC [undecane] + CC1(C)[C@@H]2CC[C@@]1(CS(=O)(=O)[O-])C(=O)C2.CCCCCCCCCCCCCC[N+](CCCCCC)(CCCCCC)CCCCCC | 1.62 ± 0.11 | – | – | 2.84 ± 0.19 | 4.32 ± 0.29 | –
CCCCCCCCCCC [undecane] + CCCCCCCCCCCCCC[N+](CCCCCC)(CCCCCC)CCCCCC.C[C@H](O)C(=O)[O-] | 1.67 ± 0.11 | 1.81 ± 0.12 | 1.75 ± 0.12 | – | – | –

— the NIST ThermoML archive (doi:10.1021/je500050p)
